In US20250304623A1, “PEPTIDES FOR INTRACELLULAR DELIVERY” (UNIVERSIDADE DE SANTIAGO DE COMPOSTELA, priority 2022, published 2025):
*: point of attachment. NHNH2 = NN*

How the values were obtained:
Type in all cases: cell-based
[1] = tested on: ARPE19 cells expressing EGFP; experiment: Cas9-RNP delivery against EGFP (gene editing, plate reader), ARPE19
Outline: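 EGFP-expressing cells, generated by stable transfection with EGFP pDNA and G-418 selection, were plated in 96-well plates at 50,000 cell/mL (100 μL/w) in DMEM+10% FBS+1% Gln-Abt. Cas9-RNP targeting EGFP was complexed with amphiphile for 30 min, applied for 4 h at 50 nM RNP, and EGFP fluorescence was read on a plate reader after 72 h.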

[2] = tested on: HCT116 cells expressing EGFP; experiment: EGFP-targeting siRNA delivery (GFP silencing vs siMOCK), HCT116
Outline: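 Silencing of EGFP by siRNA delivered with amphiphilic molecules was assessed in HCT116 cells stably expressing EGFP. Complexes of amphiphile and siGFP (30 nM siRNA) were incubated with cells for 4 h, then medium was swapped for fresh DMEM with 10% FBS. After 72 h, plate-reader fluorescence decrease relative to non-targeting siMOCK, background-subtracted, was averaged over triplicates.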

[3] = tested on: A549 cells expressing EGFP; experiment: EGFP-targeting siRNA delivery (GFP silencing vs siMOCK), A549; details: A549 cells

Substance: Ac-RK*LRRK*L-NH2 (Ac-RK(NHNH2)LRRK(NHNH2)L-NH2; not fully specified; printed as Ac-RK*LRRK*L-NH2; also: K*2,K*6: native or modified lysine (ε-amide to a linker)) [Peptide 7.2]
- percentage of gene editing, GFP fluorescence intensity decrease (% of reduction) ([1]; Dodecanal, 5 μM): 0%
- percentage of gene editing, GFP fluorescence intensity decrease (% of reduction) ([1]; Dodecanal, 10 μM): 0%
- percentage of gene editing, GFP fluorescence intensity decrease (% of reduction) ([1]; Myristoleyl, 5 μM): 3%
- percentage of gene editing, GFP fluorescence intensity decrease (% of reduction) ([1]; Myristoleyl, 15 μM): −8%
- percentage of GFP-silencing relative to siMOCK ([2]; Dodecanal, 5 μM): −20%
- percentage of GFP-silencing relative to siMOCK ([2]; Dodecanal, 10 μM): −5%
- percentage of GFP-silencing relative to siMOCK ([2]; Myristoleyl, 10 μM): 19%
- percentage of GFP-silencing relative to siMOCK ([2]; Myristoleyl, 15 μM): −22%
- percentage of GFP-silencing relative to siMOCK ([3]; Dodecanal, 5 μM): 5%
- percentage of GFP-silencing relative to siMOCK ([3]; Dodecanal, 10 μM): 11%
- percentage of GFP-silencing relative to siMOCK ([3]; Dodecanal, 15 μM): 8%
- percentage of GFP-silencing relative to siMOCK ([3]; Myristoleyl, 5 μM): 8%
- percentage of GFP-silencing relative to siMOCK ([3]; Myristoleyl, 10 μM): 14%
- percentage of GFP-silencing relative to siMOCK ([3]; Myristoleyl, 15 μM): 16%
